Source: US9056140B2, “Pharmaceutical compound” (priority 2007, dated 2015)

Columns and labels:
[1] = system: MCF-7 cells (ER-positive breast cancer cell line); assay: LDH release assay, cell survival of MCF-7 monolayers; type: cell-based, human; details: FIG. 2; saporin 500 nM, raloxifene 1000 nM, alone or as admixture
Experimental: (§1) Cell survival (%) for each cell line is calculated according to a standard lactate dehydrogenase (LDH) release assay, where […] (0% survival) corresponds to cells treated with 50 μg/ml of Mitomycin C and […] (100%) survival corresponds to cells treated only with complete medium.
The MCF-7 cell line (ECACC, catalogue no. 86012803) was isolated from a breast adenocarcinoma in a person and it expresses the estrogen receptor. The cell line was maintained in Minimum Essential Medium (Sigma) supplemented with 2 mM L-Gln (Sigma), 1% Non Essential amino acids (Sigma), 100 IU Penicillin, 100 μg/ml Streptomycin (Sigma) and, as complete medium, 10% Foetal Calf Serum (FCS) (Sigma).
(§2) Cultures of MCF-7, HCC-1143 and OVCAR-3 were harvested at approximately 80% confluency by trypsinisation and after washing once in serum free medium, used to seed Flat bottom 96-well plates (Nunc) with 5×10^3 cells per well in 200 μl of complete medium. […]
(§3) The detection reagent from the CytoTox 96® Non-Radioactive Cytotoxicity Assay kit (Promega) was prepared as per manufacturer's instruction and 50 μl/well of detection reagent was added to all wells. After 30 minutes incubation in the dark at room temperature, the reaction was stopped by adding 50 μl/well of Stop solution to all wells and the absorbance of each well at 490 nm was established.

[2] = system: HCC-1143 cells (ER-negative breast cancer cell line); assay: LDH release assay, cell survival of HCC-1143 monolayers; type: cell-based, human; details: FIG. 2; raloxifene 1000 nM
Experimental: as §1
The cell line was maintained in RPMI-1640 (Sigma) supplemented with 2 mM L-Gln (Sigma), 10 mM HEPES (Sigma), 1 mM Na-Pyr (Sigma), 100 IU Penicillin, 100 μg/ml Streptomycin (Sigma) and, as complete medium, 10% FCS (Sigma).
Cultures of MCF-7, HCC-1143 and OVCAR-3 were harvested at approximately 80% confluency by trypsinisation and after washing once in serum free medium, used to seed Flat bottom 96-well plates (Nunc) with 5×10^3 cells per well in 200 μl of complete medium.
Following 18 hours incubation at 37° C., the test compounds were removed and 200 μl/well of complete medium added to each well. […]
as §3

[3] = system: OVCAR-3 cells (ovarian ER positive cell line); assay: LDH release assay, cell survival of OVCAR-3 monolayers; type: cell-based, human; details: FIG. 2; raloxifene 1000 nM
Experimental: as §1
Finally, the NIH:OVCAR-3 cells (ATTC, catalogue no. HTB-161) was isolated from an ovary adenocarcinoma in a person and it expresses the estrogen receptor. The cell line was maintained in RPMI-1640 (Sigma) supplemented with 2 mM L-Gln (Sigma), 10 mM HEPES (Sigma), 1 mM Na-Pyr (Sigma), 0.01 mg/ml Bovine Insulin (Sigma), 100 IU Penicillin, 100 μg/ml Streptomycin (Sigma) and, as complete medium, 20% FCS (Sigma).
as §2, §3

MCF-7 tumors = assay: In vivo anti-tumor activity, MCF-7 tumors in nude female mice; details: i.v. retro-orbital, days 36 and 43
Experimental: Animals received intravenous treatment via the retro-orbital route on days 36 and 43 post challenge.
Thirty (30) nude female mice (nu/nu), 6-8 weeks old, were challenged subcutaneously with 2×10^7 MCF-7 cells delivered in combination with Matrigel (Becton Dickinson) (200 μl total volume). Weight loss and tumor growth (calculated by taking two perpendicular measurements and applying the formula [Π*((min measurement)/2)^2*(maximum measurement)]) were monitored daily until the end of the study.
Statistical differences were calculated using non-parametric Mann-Whitney assays and considered significant if p<0.05.
Control animals received either PBS or the same doses of raloxine via the same route.
Due to the natural susceptibility of MCF-7 cells to estrogen production, daily tumor volume variation in the nude mice model used follows sinusoidal pattern with a period of approximately 4/5 days (see FIG. 3). The duration of this period correlates with the duration of the oestrus cycle in mice (i.e. 4/5 days). As a result, and in order to facilitate experimental analysis, FIG. 3 represents tumor volume variations for each experimental group both as daily changes and as moving averages (i.e. a trend line) for overlapping 5 day periods (i.e. overlap is 4 days per point).

[4] = cited from earlier work
[5] = patients taking raloxifene daily

Compound	lethal effect on MCF-7 cells [1]	lethal effect on HCC-1143 cells [2]	lethal effect on OVCAR-3 cells [3]	tumor growth compared to PBS control group (MCF-7 tumors; peak blood concentration 0.1 nM conjugate or 0.1 ng/ml raloxifene)	tumor growth compared to PBS control group (MCF-7 tumors; peak blood concentration 0.2 nM conjugate or 0.2 ng/ml raloxifene)	tumor volume / tumor growth (MCF-7 tumors; peak blood concentration 0.4 nM conjugate or 0.4 ng/ml raloxifene, vs PBS)	reducing the incidence of estrogen receptor positive breast cancer ([4]; clinical trial, vs tamoxifen)	fewer blood clots than women taking tamoxifen daily [4, 5]	fewer uterine cancers than women taking tamoxifen daily [4, 5]
O=C(c1ccc(OCCN2CCCCC2)cc1)c1c(-c2ccc(O)cc2)sc2cc(O)ccc12 [Raloxifene]	selective significant (p<0.05) effect	not against	not against	did not result in any changes	did not result in any changes	maintenance or slight reduction of tumor size over time	as effective as tamoxifen	29%	36%
saporin	no significant (p>0.05) lethal effect	–	–	–	–	–	–	–	–
